Reference: patent publication US20220315578A1, “BRD9 BIFUNCTIONAL DEGRADERS AND THEIR METHODS OF USE” (NOVARTIS AG, priority 2019, published 2022)

Target: T1, BRD9-GFP (Homo sapiens, UniProt Q9H8M2)
T1 construct: CHYSEL (2A cis-acting hydrolase element) remnant after GFP; mCherry is split off as a separate protein (C); expressed in transfected cells; host or cells: HEK293A cells (Invitrogen R70507), lentiviral transduction with pLenti6-BRD9-GFP-CHYSEL-mCherry, blasticidin selection
T1 sequence (Q9H8M2 1-597): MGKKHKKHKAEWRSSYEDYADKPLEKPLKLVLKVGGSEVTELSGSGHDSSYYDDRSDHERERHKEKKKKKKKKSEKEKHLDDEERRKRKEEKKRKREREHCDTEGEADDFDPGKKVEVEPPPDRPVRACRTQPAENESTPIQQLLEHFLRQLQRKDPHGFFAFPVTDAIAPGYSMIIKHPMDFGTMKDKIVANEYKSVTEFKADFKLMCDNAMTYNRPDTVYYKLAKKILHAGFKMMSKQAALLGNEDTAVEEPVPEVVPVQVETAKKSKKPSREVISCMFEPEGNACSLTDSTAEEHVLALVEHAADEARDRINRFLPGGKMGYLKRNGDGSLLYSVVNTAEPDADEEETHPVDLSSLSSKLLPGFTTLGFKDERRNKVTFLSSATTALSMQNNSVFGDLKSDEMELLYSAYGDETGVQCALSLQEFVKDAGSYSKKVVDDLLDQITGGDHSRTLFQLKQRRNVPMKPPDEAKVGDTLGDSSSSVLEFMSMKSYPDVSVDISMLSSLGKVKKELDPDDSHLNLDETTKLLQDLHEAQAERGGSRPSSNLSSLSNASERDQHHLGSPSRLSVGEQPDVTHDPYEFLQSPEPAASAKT
Experiment: BRD9-GFP protein abundance flow cytometry assay in HEK293A cells
Type: cell-based
Conditions: HEK293A-BRD9-GFP-CHYSEL-mCherry cells; for BRD9 Deg Amax %: 24 h, % protein remaining at the concentration at which maximum degradation is seen; for DC50: 24 h at 37° C., 10-point 1:3 dilution, concentration at which 50% maximal degradation was observed
Description: Compounds of the invention were tested in the following cellular assays. The terms in Table 1 are defined as follows: DC50 refers to the concentration at which 50% maximal degradation was observed; deg Amax is the extent of degradation and the value refers to the % protein remaining at the concentration at which maximum degradation is seen.
BRD9-GFP protein abundance flow cytometry assay in HEK293A cells: Degradation of BRD9 was measured in HEK293A cells expressing BRD9-GFP and mCherry from a stably integrated second generation bicistronic BRD9-GFP-CHYSELmCherry construct. Reduction of the GFP signal measured by flow cytometry served as readout for BRD9 degradation after degrader treatment.
The bicistronic BRD9-GFP-CHYSEL-mCherry construct is based on a pLenti6-DEST vector backbone where a GFP-CHYSEL-mCherry cassette was synthesized and inserted downstream of the DEST cassette by Gibson assembly resulting in the new gateway compatible vector pLenti6-DEST-GFP-CHYSEL-mCherry to allow Gateway cloning with pENTR221-BRD9 (w/o ATG) to obtain the final sensor construct pLenti6-BRD9-GFP-CHYSEL-mCherry.
HEK293 Å-BRD9-GFP-CHYSEL-mCherry sensor cells were generated by lentiviral vector transduction using the pLenti6-BRD9-GFP-CHYSEL-mCherry sensor construct described before. […] The mix was incubated for another 20 min at RT and then added to 1 ml of a freshly prepared suspension of HEK293FT cells in a well of a 6-well plate (concentration 1.2×10^6 cells/ml). 1 day after transfection, the medium was replaced with 1.5 ml of complete growth medium (DMEM high Glucose+10% FCS+1% L-Glutamine+1% NEAA+1% NaPyr.). 48 h post transfection supernatant containing viral transducing particles was collected and frozen at −80° C. […] Infection was performed with […] of collected supernatant containing viral transducing particles in 1 ml medium including 8 μg/ml polybrene. 24 h post infection, stably transfected cells were selected with blasticidin at a concentration of 8 μg/ml.
Stable HEK293 Å-BRD9-GFP-CHYSEL-mCherry cells were maintained in complete growth medium (DMEM high Glucose+10% FCS+1% L-Glutamine+1% NEAA+1% NaPyr.) with passaging performed twice per week. On Day 0, HEK293 Å-BRD9-GFP-CHYSEL-mCherry cells were seeded at 10,000 cells/well in a 96-well microtiter plate in […] complete medium. On Day 1, cells were treated in duplicate with 10-point 1:3 dilution series of compound using the HP D300 Digital Dispenser (Tecan). DMSO concentrations were normalized across the plate to 0.1%. On Day 2, after 24 h of incubation at 37° C., treatment media was discarded, cells rinsed with 100 ul/well PBS and then detached using 40 ul trypsin/well for 5 min. Trypsin was neutralized with 100 ul/well PBS+20% FCS). Flow cytometry was performed on the samples using the Beckman Coulter CytoFLEX flow cytometer. Cell identification was then performed using forward (FSC) vs. side scatter (SSC) plots. Single cell discrimination is performed using FSC-Width (FSC-W) vs. FSC-Height (FSC-H) plots. Median GFP/mCherry ratio values for 5,000 single cells are used to determine BRD9 levels. Median GFP/mCherry ratio values from HEK293 Å-mCherry are used as a background signal and thus defining 0% BRD9 signal. Median GFP/mCherry ratio values from DMSO treated HEK293 Å-BRD9-GFP-CHYSEL-mCherry are used to define 100% BRD9 signal for subsequent DC50 curves (concentration at 50% BRD9 degradation). Concentration response curves plotting relative reduction of the GFP/mCherry ratio signal (measured by flow cytometry) versus 10 compound concentrations (starting concentration […], 3 fold dilution steps) of the compounds allowed generation of DC50 values. Data is shown in Tables 2 and 3, in which, DC50 refers to the concentration at which 50% maximal degradation was observed; deg Amax is the extent of degradation and the value refers to the % protein remaining at the concentration at which maximum degradation is seen.

Structure (SMILES)	BRD9 Deg Amax %	DC50
COc1cc(-c2cn(C)c(=O)c(C)c2C)ccc1CN1CCN(CC2CCN(C(=O)c3ccc(Cl)c(N4CCC(=O)NC4=O)c3)CC2)CC1 [Compound A14, 1-(2-Chloro-5-(4-((4-(2-methoxy-4-(1,4,5-trimethyl-6-oxo-1,6-dihydropyridin-3-yl)benzyl)piperazin-1-yl)methyl)piperidine-1-carbonyl)phenyl)dihydropyrimidine-2,4(1H,3H)-dione]	33.06%	3 nM
COc1cc(-c2cn(C)c(=O)c(C)c2C)ccc1CN1CCN(CC2CCN(C(=O)c3cccc(N4CCC(=O)NC4=O)c3)CC2)CC1 [Compound A15, 1-(3-(4-((4-(2-Methoxy-4-(1,4,5-trimethyl-6-oxo-1,6-dihydropyridin-3-yl)benzyl)piperazin-1-yl)methyl)piperidine-1-carbonyl)phenyl)dihydropyrimidine-2,4(1H,3H)-dione]	29.47%	49 nM
COc1cc(-c2cc(C)c(=O)n(C)c2)c(OC)cc1CN1CCC(OC2CCN(C(=O)c3cccc(N4CCC(=O)NC4=O)c3)CC2)CC1 [Compound A16, 1-(3-(4-((1-(4-(1,5-Dimethyl-6-oxo-1,6-dihydropyridin-3-yl)-2,5-dimethoxybenzyl)piperidin-4-yl)oxy)piperidine-1-carbonyl)phenyl)dihydropyrimidine-2,4(1H,3H)-dione]	6.37%	32 nM
COc1ccc(C(=O)N2CCC(CN3CCC(Oc4ccc(-c5cn(C)c(=O)c6cnccc56)cc4Cl)CC3)CC2)cc1N1CCC(=O)NC1=O [Compound A17, 1-(5-(4-((4-(2-Chloro-4-(2-methyl-1-oxo-1,2-dihydro-2,7-naphthyridin-4-yl)phenoxy)piperidin-1-yl)methyl)piperidine-1-carbonyl)-2-methoxyphenyl)dihydropyrimidine-2,4(1H,3H)-dione]	32.92%	11 nM
COc1cc(-c2cn(C)c(=O)c(C)c2C)c(OC)cc1CN1CCC(OC2CCN(C(=O)c3ccc(Cl)c(N4CCC(=O)NC4=O)c3)CC2)CC1 [Compound A18, 1-(2-Chloro-5-(4-((1-(2,5-dimethoxy-4-(1,4,5-trimethyl-6-oxo-1,6-dihydropyridin-3-yl)benzyl)piperidin-4-yl)oxy)piperidine-1-carbonyl)phenyl)dihydropyrimidine-2,4(1H,3H)-dione]	11.83%	15 nM
COc1cc(-c2cn(C)c(=O)c(C)c2C)cc(OC)c1OCC1CCN(CC2CCN(C(=O)c3ccc(Cl)c(N4CCC(=O)NC4=O)c3)CC2)CC1 [Compound A19, 1-(2-Chloro-5-(4-((4-((2,6-dimethoxy-4-(1,4,5-trimethyl-6-oxo-1,6-dihydropyridin-3-yl)phenoxy)methyl)piperidin-1-yl)methyl)piperidine-1-carbonyl)phenyl)dihydropyrimidine-2,4(1H,3H)-dione]	17.02%	3 nM
COc1cc(-c2cn(C)c(=O)c3cnccc23)c(OC)cc1OC1CCN(CC2CCN(C(=O)c3ccc(OC)c(N4CCC(=O)NC4=O)c3)CC2)CC1 [Compound A20, 1-(5-(4-((4-(2,5-Dimethoxy-4-(2-methyl-1-oxo-1,2-dihydro-2,7-naphthyridin-4-yl)phenoxy)piperidin-1-yl)methyl)piperidine-1-carbonyl)-2-methoxyphenyl)dihydropyrimidine-2,4(1H,3H)-dione]	9.75%	14 nM
COc1cc(-c2cn(C)c(=O)c(C)c2C)cc(OC)c1CCN1CCC(OC2CCN(C(=O)c3ccc(Cl)c(N4CCC(=O)NC4=O)c3)CC2)CC1 [Compound A21, 1-(2-Chloro-5-(4-((1-(2,6-dimethoxy-4-(1,4,5-trimethyl-6-oxo-1,6-dihydropyridin-3-yl)phenethyl)piperidin-4-yl)oxy)piperidine-1-carbonyl)phenyl)dihydropyrimidine-2,4(1H,3H)-dione]	12.12%	1 nM
